Measurements: patent US8470842B2, “Hydrochloride salts of 8-[{1-(3,5-Bis-trifluoromethyl)phenyl)-ethoxy}-methyl]-8-phenyl-1,7-diaza-spiro[4.5]decan-2-one and preparation process therefor” (OPKO Health, Inc., priority 2006, dated 2013)
Entries after “also recorded” stand apart in the source; their conditions may differ. Counter-ions that a name gives are not always drawn.

Key:
Format in all cases: physicochemical
[1] = Chemical stability tests on storage under humidity and temperature conditions
Procedure: Chemical stability tests were carried out on aliquots of the salt form of interest by placing a accurately weighed sample of the salt form of the compound of Formula I into a polyethylene bag. The bagged samples were enclosed in fiberboard tubes fitted with metal caps which were stored under the indicated conditions of humidity and temperature for the indicated time. Analysis was carried out by dissolving the contents of a vial and quantifying the amount of solute utilizing HPLC analysis. Where noted the aliquots were stored in capped amber vials under the conditions noted instead of polyethylene bags.
(§1) The stability of the crystalline monohydrate hydrochloride salt form of the compound of Formula I was also examined using the procedure described above for samples contained in polyethylene bags by exposing samples to the following conditions: (a) 60% relative humidity (RH) at 4° C. for twelve months, at 25° C. for eighteen months, and at 50° C. for one month; (b) 40° C. and 75% relative humidity (RH) for twelve weeks, and (c) 70° C. at ambient humidity for one hour. Samples of the crystalline monohydrate hydrochloride form I salt were also tested for one cycle of ICH UV/Vis light stress conditions.
(§2) The stability of the crystalline tosylate form I salt form of the compound of Formula I was examined by placing weighed amounts of the salt into clear glass vials and storing them under the indicated conditions. Periodically a vial was removed and the contents examined for decomposition of the compound. Accordingly, samples of the tosylate form I salt were exposed to the following conditions: (a) 40° C. and 75% relative humidity (RH) for four weeks; (b) 50° C. and ambient relative humidity for four weeks; and (c) 70° C. for one hour. Samples of the tosylate form I salt were separately tested for one cycle of ICH UV/Vis light stress conditions.

[2] = ICH UV/Vis light stress conditions; details: one cycle of ICH UV/Vis light stress conditions
Procedure: as §1, §2

[3] = Solubility tests (equilibrated slurry, HPLC quantification); details: for aqueous solubility: water, pH of 4 or less (more acidic)
Procedure: Solubility tests were conducted by placing an excess of the compound in an aliquot of the solvent of interest and allowing the slurry to equilibrate under the selected temperature conditions (typically ambient). When the solvent was water, pH was adjusted to the desired value with hydrochloric acid and sodium hydroxide. When the slurry mixture had equilibrated, the excess solids were centrifuged (water) or filtered (all other solvents) from the supernatant and the amount of compound which had been dissolved was quantified utilizing HPLC analysis of diluted aliquots of the supernatant liquid. Pharmaceutical grade solvents were employed.

[4] = solvent Ethanol, ambient temperature
[5] = solvent Glycerin, ambient temperature
[6] = solvent PEG 400, ambient temperature
[7] = solvent Propylene Glycol, ambient temperature

Row | Compound | form change on storage ([1]; storage under ambient conditions of temperature and humidity after dehydration) | stability under light stress [2] | Solubility (mg/ml, ambient conditions) [3, 4] [mg/mL] | Solubility (mg/ml, ambient conditions) [3, 5] [mg/mL] | Solubility (mg/ml, ambient conditions) [3, 6] [mg/mL] | Solubility (mg/ml, ambient conditions) [3, 7] [mg/mL] | aqueous solubility [3] | temperature up to which the salt is stable ([1]; 70° C. at ambient humidity for one hour, polyethylene bags) | stability at ambient/room temperature over relative humidity range ([1]; ambient temperature, about 5% to about 95% relative humidity) | stability under all tested conditions ([1]; clear glass vials, 40° C./75% RH four weeks, 50° C./ambient RH four weeks, 70° C. one hour, one cycle ICH UV/Vis light stress)
1 | C[C@@H](OC[C@@]1(c2ccccc2)CC[C@]2(CCC(=O)N2)CN1)c1cc(C(F)(F)F)cc(C(F)(F)F)c1 [anhydrous form I salt, (5S,8S)-8-[{(1R)-1-(3,5-Bis-(trifluoromethyl)phenyl)-ethoxy}-methyl]-8-phenyl-1,7-diazaspiro[4.5]decan-2-one] | returns the crystals to the monohydrate form | – | – | – | – | – | – | – | – | –
2 | C[C@@H](OC[C@@]1(c2ccccc2)CC[C@]2(CCC(=O)N2)CN1)c1cc(C(F)(F)F)cc(C(F)(F)F)c1 [monohydrate hydrochloride form I salt, (5S,8S)-8-[{(1R)-1-(3,5-Bis-(trifluoromethyl)phenyl)-ethoxy}-methyl]-8-phenyl-1,7-diazaspiro[4.5]decan-2-one] | – | stable under light stress conditions | 185 | 16 | 20 | 160 | at least 1.0 mg/ml | about 70 °C | does not decompose or dehydrate; also recorded: stable at room temperature | –
3 | C[C@@H](OC[C@@]1(c2ccccc2)CC[C@]2(CCC(=O)N2)CN1)c1cc(C(F)(F)F)cc(C(F)(F)F)c1 [tosylate form I salt, (5S,8S)-8-[{(1R)-1-(3,5-Bis-(trifluoromethyl)phenyl)-ethoxy}-methyl]-8-phenyl-1,7-diazaspiro[4.5]decan-2-one] | – | – | 75 | 2.5 | 1.8 | 20 | at least 0.38 mg/ml | – | – | stable under all tested conditions
